# Values of other authors in patent US4138582A, “Cycloalkenyl analogues of prostaglandin A” (Miles Laboratories, Inc., priority 1977, dated 1979).
# Entries after “also recorded” stand apart in the source; their conditions may differ. Read-outs that look alike come from different tables or passages of the source.
# What was measured:
# gastric secretion [1] = conditions: man
# growth hormone = conditions: rats
# gastric secretion [2] = conditions: dogs
# human platelets = conditions: result in words
# blood platelets = conditions: in vitro
# [3] = tested on: female reproductive system; conditions: fertility, labor, abortion, menstruation
SMILES,inhibition of gastric secretion (gastric secretion [1]),growth hormone release / synthesis (growth hormone),inhibition of gastric secretion (gastric secretion [2]),inhibition of platelet aggregation by natural prostaglandin (human platelets),inhibition of thrombogenesis (blood platelets),effects in the female reproductive system [3]
CCCCC[C@H](O)/C=C/[C@H]1C=CC(=O)[C@@H]1CCCCCCC(=O)O [PGA1],exhibits similar activity in man,increased synthesis of that hormone,inhibit gastric secretion,,,
CCCCC[C@H](O)/C=C/[C@H]1[C@H](O)CC(=O)[C@@H]1CCCCCCC(=O)O [PGE1],,increase release of growth hormone,inhibit gastric secretion,displays similar activity,inhibits thrombogenesis in vitro,
CCCCC[C@H](O)/C=C/[C@H]1[C@H](O)CC(=O)[C@@H]1C/C=C\CCCC(=O)O [PGE2],,increase release of growth hormone,inhibit gastric secretion,,,exerts potent oxytocic effects in inducing labor
CCCCC[C@H](O)/C=C/[C@@H]1[C@@H](C/C=C\CCCC(=O)O)[C@@H](O)C[C@H]1O [PGF2α],,,,,,has centragestational effects; also recorded: appears to be involved in the mechanism of menstruation; also recorded: induces spontaneous abortions in early pregnancy
